Source: patent US7625936B2, “Mitotic kinesin inhibitors” (Merck & Co. Inc., priority 2005, dated 2009)

Target: T1, human KSP motor domain (KSP(367H)) (Homo sapiens, UniProt P52732)
T1 construct: were used to amplify the motor domain and the neck linker region; made in house; host or cells: E. coli BL21 (DE3), vector pRSETa
T1 sequence (P52732 1-367): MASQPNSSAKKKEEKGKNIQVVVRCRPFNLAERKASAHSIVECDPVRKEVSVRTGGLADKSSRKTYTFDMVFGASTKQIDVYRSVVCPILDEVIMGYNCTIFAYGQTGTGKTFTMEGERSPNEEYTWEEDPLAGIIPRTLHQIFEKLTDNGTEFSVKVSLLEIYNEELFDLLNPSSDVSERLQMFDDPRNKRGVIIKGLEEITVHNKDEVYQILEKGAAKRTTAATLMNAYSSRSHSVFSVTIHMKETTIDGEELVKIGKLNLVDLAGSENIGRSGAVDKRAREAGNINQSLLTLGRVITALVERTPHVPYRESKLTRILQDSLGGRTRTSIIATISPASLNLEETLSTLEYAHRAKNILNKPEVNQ
Test: Kinesin ATPase in vitro assay
Type: biochemical
Settings: kinesin motor domain incubated with microtubules, 1 mM ATP and compound at 23° C.; free phosphate by quinaldine red/ammonium molybdate, absorbance 540 nm
Excerpt: I. Kinesin ATPase In Vitro Assay
Cloning and Expression of Human Poly-Histidine Tagged KSP Motor Domain (KSP(367H))
Plasmids for the expression of the human KSP motor domain construct were cloned by PCR using a pBluescript full length human KSP construct (Blangy et al., Cell, vol. 83, pp 1159-1169, 1995) as a template. The N-terminal primer 5′-[…] (SEQ.ID.NO.: 1) and the C-terminal primer 5′-[…] […] (SEQ.ID.NO.: 2)were used to amplify the motor domain and the neck linker region. The PCR products were digested with AseI and XhoI, ligated into the NdeI/XhoI digestion product of pRSETa (Invitrogen) and transformed into E. coli BL21 (DE3).
Cells were grown at 37° C. to an OD600 of 0.5. […]
The kinesin motor domain is incubated with microtubules, 1 mM ATP (1:1 MgCl2: Na-ATP), and compound at 23° C. in buffer containing 80 mM K-HEPES (pH 7.0), 1 mM EGTA, 1 mM DTT, 1 mM MgCl2, and 50 mM KCl. […] Free phosphate from the ATP hydrolysis reaction is measured via a quinaldine red/ammonium molybdate assay by adding 150 μl of quench C buffer containing a 2:1 ratio of quench A:quench B. Quench A contains 0.1 mg/ml quinaldine red and 0.14% polyvinyl alcohol; quench B contains 12.3 mM ammonium molybdate tetrahydrate in 1.15 M sulfuric acid. The reaction is incubated for 10 minutes at 23° C., and the absorbance of the phospho-molybdate complex is measured at 540 nm.

IC50 [µM]	SMILES
≤ 50	CC(=O)N1N=C(c2cc(F)ccc2F)CC1(CC[Si](C)(C)O)c1ccccc1 (centres unmarked) [Compound 1-5, {2-[1-acetyl-3-(2,5-difluorophenyl)-5-phenyl-4,5-dihydro-1H-pyrazol-5-yl]ethyl}(dimethyl)silanol]
≤ 50	CC(=O)N1CCN(CCC[C@@]2(c3ccccc3)CC(c3cc([Si](C)(C)C)ccc3F)=NN2C(C)=O)CC1 [Compound 3-8, 1-acetyl-4-(3-{(5S)-1-acetyl-3-[2-fluoro-5-(trimethylsilyl)phenyl]-5-phenyl-4,5-dihydro-1H-pyrazol-5-yl}propyl)piperazine]
